Test results as given in patent publication US8987245B2, “Composition and method for affecting obesity and related conditions” (priority 2008, dated 2015).
“Also recorded” adds a separate entry of the source.

Key:
[1] = many in ob/ob mice, younger mice; cited from earlier work
protein kinase B (PKB) = assay: Experiment I: PKB activity and expression in skeletal muscle (quadriceps); type: in vivo, male C57BL/6J mice
Description: The following experiment involved a diet-induced mouse model of obesity. In particular, male C57BL/6J mice (these wildtype mice are genetically distinct from ob/ob and db/db mice and are not leptin-deficient) were placed on a high fat diet (HFD) or control diet (CON) at 8 wks of age, and MnTBAP or vehicle administration was initiated 5 months later, when all mice were at a steady state body weight. Mice receiving the CON diet served as lean control animals to those receiving the HFD diet. Each of the CON and HFD mice groups were then further divided into two groups. One of the CON and HFD groups was treated with 10 mg MnTBAP/kg of body weight for 30 days, and the other groups received a vehicle for 30 days. […]
(§1) Before and after treatment, insulin sensitivity (IS) was assessed using an insulin-assisted glucose tolerance test (IA-GTT) after a 16-hour fast. Fasting body weights were measured at the end of each fast just prior to initiation of the IA-GTT. […] In addition, SWAT and EWAT weights were measured immediately after harvest. […]
In addition to affecting weight loss, MnTBAP has been shown by the above experiment to increase insulin sensitivity. […] It is noted that HFD mice were very insulin resistant before treatment (p<0.001), but a main effect for diet after treatment (p=0.3) was not detected, a result that underscores MnTBAP's effect on insulin action.

[2] = system: uncoupling protein-3 (UCP3); assay: Experiment I: UCP3 expression in skeletal muscle (quadriceps); type: in vivo, male C57BL/6J mice
Description: (§2) The following experiment involved a diet-induced mouse model of obesity. In particular, male C57BL/6J mice (these wildtype mice are genetically distinct from ob/ob and db/db mice and are not leptin-deficient) were placed on a high fat diet (HFD) or control diet (CON) at 8 wks of age, and MnTBAP or vehicle administration was initiated 5 months later, when all mice were at a steady state body weight. Mice receiving the CON diet served as lean control animals to those receiving the HFD diet. Each of the CON and HFD mice groups were then further divided into two groups. One of the CON and HFD groups was treated with 10 mg MnTBAP/kg of body weight for 30 days, and the other groups received a vehicle for 30 days. The term “vehicle” refers to the solvent used to deliver MnTBAP. In this experiment, MnTBAP was dissolved in 2% bicarbonate (pH 8.0) to a final concentration of 2 mg/mL. Vehicle-treated mice received a volume of vehicle that would have been sufficient to deliver 10 mg of MnTBAP per kg of body weight were the compound present. […]
as §1

[3] = cited from earlier work
[4] = system: diet-induced mouse model of obesity; assay: Experiment I: diet-induced mouse model of obesity, body weight, fat pad weights, caloric intake; type: in vivo, male C57BL/6J mice
Description: The following experiment involved a diet-induced mouse model of obesity. In particular, male C57BL/6J mice (these wildtype mice are genetically distinct from ob/ob and db/db mice and are not leptin-deficient) were placed on a high fat diet (HFD) or control diet (CON) at 8 wks of age, and MnTBAP or vehicle administration was initiated 5 months later, when all mice were at a steady state body weight. Mice receiving the CON diet served as lean control animals to those receiving the HFD diet. Each of the CON and HFD mice groups were then further divided into two groups. One of the CON and HFD groups was treated with 10 mg MnTBAP/kg of body weight for 30 days, and the other groups received a vehicle for 30 days. The term “vehicle” refers to the solvent used to deliver MnTBAP. In this experiment, MnTBAP was dissolved in 2% bicarbonate (pH 8.0) to a final concentration of 2 mg/mL. Vehicle-treated mice received a volume of vehicle that would have been sufficient to deliver 10 mg of MnTBAP per kg of body weight were the compound present. MnTBAP was purchased from A.G. Scientific Inc., San Diego, Calif. […] The above-identified doses of MnTBAP and vehicle were administered to the mice as daily intraperitoneal injections.
At the start of the treatment, there were no significant differences in body weight between MnTBAP and vehicle groups within each diet (CON: p=0.99; HFD: p=0.77). In addition, HFD mice were dramatically heavier than CON mice at the start of treatment (p<0.001).
Before and after treatment, insulin sensitivity (IS) was assessed using an insulin-assisted glucose tolerance test (IA-GTT) after a 16-hour fast. Fasting body weights were measured at the end of each fast just prior to initiation of the IA-GTT. Approximately 5-7 days after the post-treatment IA-GTT, mice were stimulated with insulin ten minutes prior to delivery of an anesthetic cocktail to induce deep anesthesia for harvesting of quadriceps, tibialis anterior, soleus, gastrocnemius, subcutaneous white adipose tissue (SWAT), epididymal white adipose tissue (EWAT), and liver. In addition, SWAT and EWAT weights were measured immediately after harvest. Tissues were snap frozen in liquid nitrogen and stored at −80° C. until analysis. One quadriceps muscle from each mouse was homogenized for biochemical analyses.
Fasting body weights; fed-state body weights; and plasma glucose levels at various times during the IA-GTT, a test used to assess insulin sensitivity, were compared after treatment using a 2×2 analysis of variance (ANOVA) with repeated measures. Here “repeated measures” refers to the time of glucose measurement during the IA-GTT: 0, 15, 30, 45, 60 min. Subcutaneous white adipose tissue weights; epididymal white tissue adipose weights; caloric consumption; and all biochemical data, such as UCP-2, UCP-3, and PKB expression, were compared using a 2×2 ANOVA without repeated measures.

[5] = system: diet-induced mouse model of obesity; assay: Experiment I: insulin-assisted glucose tolerance test (IA-GTT), insulin sensitivity; type: in vivo, male C57BL/6J mice; conditions: HFD mice, 10 mg/kg daily, after 16-hour fast
Description: as §2, §1

[6] = system: diet-induced mouse model of obesity; assay: Experiment II: diet-induced mouse model of obesity, food intake and body weight; type: in vivo, male C57BL/6J mice; conditions: 10 mg/kg for 36 days
Description: The following experiment involved a diet-induced mouse model of obesity. In particular, male C57BL/6J mice (these wildtype mice are genetically distinct from ob/ob and db/db mice and are not leptin-deficient) were placed on a high fat diet (HFD) or control diet (CON) at 8 wks of age, and MnTBAP or vehicle administration was initiated 6 months later, when all mice were at a steady state body weight. Mice receiving the CON diet served as lean control animals to those receiving the HFD. Each of the CON and HFD mice groups were then further divided into two groups. One of the CON and HFD groups was treated with 10 mg MnTBAP/kg of body weight for 36 days, and the other groups received a vehicle for 36 days. Food intake was measured on days 0, 3, 9, 14 and 35 post-treatment.

[7] = HFD mice, quadriceps, 10 mg/kg daily for four weeks
[8] = both CON and HFD mice, 10 mg/kg daily i.p. for 30 days

SMILES: O=C(O)c1ccc(-c2c3nc(c(-c4ccc(C(=O)O)cc4)c4ccc([n-]4)c(-c4ccc(C(=O)O)cc4)c4nc(c(-c5ccc(C(=O)O)cc5)c5ccc2[n-]5)C=C4)C=C3)cc1.[Mn+3] [MnTBAP, manganese [III] tetrakis (4-benzoic acid) porphyrin]
- body weight change in known studies [1]: either no change in weight or slowed weight gain but did not induce weight loss
- PKB expression (protein kinase B (PKB); CON mice, 10 mg/kg daily): A statistically significant increase in PKB expression was not observed
- increase in activity and expression of PKB vs vehicle (protein kinase B (PKB); [7]): ~60%
- UCP3 levels ([2]; CON mice, skeletal muscle, 10 mg/kg daily): lack of a significant increase
- UCP3 expression greater than vehicle [2, 7]: ~60%
- adverse side effects ([3]; doses up to 10 mg/kg of body weight): no known adverse side effects
- mortality rates and age of death ([3]; mice, up to a dose of 88 mg/kg of body weight): does not increase mortality rates or decrease age of death
- share of weight loss due to decreased SWAT and EWAT fat deposits ([4]; 10 mg/kg daily i.p. for 30 days): approximately 50%
- treatment time until significant weight loss, fed state ([4]; CON mice, 10 mg/kg daily i.p.): 27 days
- body weight less than vehicle-treated mice after treatment ([4]; CON mice, 10 mg/kg daily i.p. for 30 days, vs CON vehicle): 12.4%
- treatment time until significant weight loss, fed state ([4]; HFD mice, 10 mg/kg daily i.p.): 15 days
- weight loss after 30 days of treatment ([4]; HFD mice, 10 mg/kg daily i.p.): dramatic weight loss
- body weight less than vehicle-treated mice after treatment ([4]; HFD mice, 10 mg/kg daily i.p. for 30 days, vs HFD vehicle): 18.6%
- EWAT weight compared to vehicle [4, 8]: dramatic reductions
- SWAT weight compared to vehicle [4, 8]: dramatic reductions
- daily caloric intake [4, 8]: without affecting daily caloric intake
- fasting body weight compared to vehicle [4, 8]: dramatic reductions
- fasting body weight after treatment vs before treatment ([4]; both HFD and CON mice, 10 mg/kg daily i.p. for 30 days): lower than before treatment
- insulin sensitivity (IA-GTT) [5]: significantly enhanced insulin sensitivity; also recorded: significantly improved insulin sensitivity
- body weight and fat mass compared to vehicle-treated controls ([6]; CON mice): lost a significant amount
- food intake vs vehicle ([6]; CON mice, days 0, 3, 9, 14 and 35): did not differ
- decrease in caloric intake over the course of the study ([6]; HFD mice): 16.6%
- food intake compared to vehicle-treated controls ([6]; HFD mice): markedly decreased food intake
